{
  "source": "patent US20250057821A1",
  "about": "“METHODS OF TREATING MYELOID MALIGNANCIES USING BCL-2 INHIBITOR” (BeiGene Switzerland GmbH, priority 2022, published 2025)",
  "key": {"patients with AML": {"system": "patients with AML", "assay": "Clinical study: antileukemic activity of Compound A in combination with azacitidine in patients with AML", "type": "in vivo, human", "conditions": "for CR / CR+CRh: 80 mg x 10 day cohort (n=17); for CR/CRh: in combination with azacitidine 75 mg/m2 x 7 days, data cutoff 5 Sep. 2022", "description": "The clinical study was conducted to evaluate the combination of Compound A and azacitidine in patients with myeloid malignancies, including acute myeloid leukemia (AML) (either treatment-naïve [TN] unfit for intensive induction chemotherapy or relapsed/refractory [R/R]), myelodysplastic syndrome (MDS), or MDS/myeloproliferative neoplasm (MPN). Patients with AML who were treatment-naive unfit for intensive chemotherapy or who are relapsed/refractory were enrolled into the AML cohorts; and patients with myelodysplastic syndrome (MDS) or MDS/myeloproliferative neoplasm (MPN) who were treatment-naïve with high-risk disease or who were relapsed/refractory were enrolled into the MDS cohorts. The AML cohorts enrolls patients with treatment-naive (TN) AML who are unfit for intensive chemotherapy and relapsed/refractory (R/R) AML. The treatment cycles are of 28 days for all AML cohorts, unless recommended otherwise by the Safety Monitoring Committee (SMC). Part 1 AML (Dose Regimen Finding; N≈18 to 36, i.e., a minimum of 6 and a maximum of 12/cohort) studied the safety and tolerability of different dose regimens of Compound A in combination with a fixed dose of azacitidine at 75 mg/m^2 for 7 days. After 3 patients have completed the dose-limiting toxicities (DLT) window, the SMC reviewed all available data and considered the probability of DLT rate to be >20% and recommended whether or not to enroll additional patients (ie, up to 12). If no additional patients were required, the SMC would recommend whether or not to open a subsequent dose regimen in Part 1 and whether to open the dose regimen for Part 2 expansion. […] The window to assess dose-limiting toxicity (DLT) is up to Day 28 for nonhematologic toxicities and Day 42 or initiation of Cycle 2 for hematologic toxicities. The AML Part 1 dose regimen finding cohorts are as follows: • A) Compound A 40 mg daily×10 days with azacitidine (Ramp-up dosing of Compound A: 5 mg, 10 mg, 20 mg, 40 mg) • B) Compound A 80 mg daily×10 days with azacitidine (Ramp-up dosing of Compound A: 10 mg, 20 mg, 40 mg, 80 mg) • C) Compound A 160 mg daily×10 days with azacitidine (Ramp-up dosing of Compound A: 20 mg, 40 mg, 80 mg, 160 mg) • D) Compound A 160 mg daily×28 days with azacitidine (Ramp-up dosing of Compound A: 20 mg, 40 mg, 80 mg, 160 mg) • E) Compound A 320 mg daily×21 days with azacitidine (Ramp-up dosing of Compound A: 40 mg, 80 mg, 160 mg, and 320 mg) • F) Compound A 320 mg daily×28 days with azacitidine (Ramp-up dosing of Compound A: 40 mg, 80 mg, 160 mg, and 320 mg) In all Part 1 AML cohorts and the Part 2 cohort receiving the 28-day dose regimen, the initial dose of azacitidine is given 1 day prior to administration of Compound A (designated as Day 0) to compare baseline PK samples of azacitidine monotherapy with azacitidine in combination with Compound A, which starts on Day 1. In the subsequent cycles and all remaining cohorts, azacitidine administration start on Day 1 concurrently with Compound A. Dosing schema in Part I AML is shown in FIG. 1. Part 2 AML (Safety Expansion; N≈60) treated up to the cohorts each consisting of approximately 10 patients with dose regimens as defined in Part 1 and recommended by the SMC to proceed to Part 2. Part 2 of the study determined safety and antileukemic activity in a larger number of patients with a longer follow-up at dose regimens that were declared tolerable with early signs of activity in Part 1. At a given time, more than one dose regimen may be approved for expansion in Part 2; however, only a single Part 2 AML cohort was to be offered to prospective participants. Patients were preferentially enrolled in any open Part 1 cohort, if applicable. Each Part 2 cohort would continue to enroll up to 10 patients; this would include any additional patients enrolled in Part 1 but not needed for the initial SMC safety review of that cohort. […]"}, "[1]": {"system": "patients with AML or MDS or MDS/MPN", "assay": "Clinical study: safety and tolerability of Compound A in combination with azacitidine", "type": "in vivo, human", "conditions": "treatment of AML or MDS or MDS/MPN, as of 4 Feb. 2023, 97 patients", "description": "The clinical study was conducted to evaluate the combination of Compound A and azacitidine in patients with myeloid malignancies, including acute myeloid leukemia (AML) (either treatment-naïve [TN] unfit for intensive induction chemotherapy or relapsed/refractory [R/R]), myelodysplastic syndrome (MDS), or MDS/myeloproliferative neoplasm (MPN). Patients with AML who were treatment-naive unfit for intensive chemotherapy or who are relapsed/refractory were enrolled into the AML cohorts; and patients with myelodysplastic syndrome (MDS) or MDS/myeloproliferative neoplasm (MPN) who were treatment-naïve with high-risk disease or who were relapsed/refractory were enrolled into the MDS cohorts.\nPart 1 AML (Dose Regimen Finding; N≈18 to 36, i.e., a minimum of 6 and a maximum of 12/cohort) studied the safety and tolerability of different dose regimens of Compound A in combination with a fixed dose of azacitidine at 75 mg/m^2 for 7 days. After 3 patients have completed the dose-limiting toxicities (DLT) window, the SMC reviewed all available data and considered the probability of DLT rate to be >20% and recommended whether or not to enroll additional patients (ie, up to 12). […]\nAll Part 1, Part 2, and Part 3 cohorts were assessed for DLTs. […]"}, "[2]": {"conditions": "R/R patients, in combination with azacitidine"}, "[3]": {"conditions": "TN patients, in combination with azacitidine"}},
  "data": [
    {"smiles": "CC(C)c1ccccc1[C@@H]1CCCN1C1CC2(CCN(c3ccc(C(=O)NS(=O)(=O)c4ccc(NCC5CCC(C)(O)CC5)c([N+](=O)[O-])c4)c(Oc4cnc5[nH]ccc5c4)c3)CC2)C1", "note": "(stereo partly drawn) [Compound A, 2-((1H-pyrrolo[2,3-b]pyridin-5-yl)oxy)-N-((4-((((1r,4r)-4-hydroxy-4-methylcyclohexyl)methyl)amino)-3-nitrophenyl)sulfonyl)-4-(2-((S)-2-(2-isopropylphenyl)pyrrolidin-1-yl)-7-azaspiro[3.5]nonan-7-yl)benzamide]", "values": [
      {"measurement": "CR", "setting": "patients with AML; [2]", "value": 50, "unit": "%"},
      {"measurement": "CR+CRh", "setting": "patients with AML; [2]", "value": 67, "unit": "%"},
      {"measurement": "CR", "setting": "patients with AML; [3]", "value": 73, "unit": "%"},
      {"measurement": "CR+CRh", "setting": "patients with AML; [3]", "value": 73, "unit": "%"},
      {"measurement": "CR/CRh", "setting": "patients with AML; R/R AML patients, all dose cohorts", "value": 50, "unit": "%"},
      {"measurement": "CR+CRh in TN AML achieved by the end of cycle 1", "setting": "patients with AML; TN AML patients, responders by end of cycle 1 out of all CR+CRh responders, in combination with azacitidine", "value": "15 of 20"},
      {"measurement": "CR/CRh", "setting": "patients with AML; TN unfit AML patients, all dose cohorts (40, 80, 160 mg x 10 days, 160 mg x 28 days)", "value": 65, "unit": "%"},
      {"measurement": "safety analysis", "setting": "[1]", "value": "well-tolerated and safe"}
    ]}
  ]
}
